Experimental data published in US8338619B2, “Crystalline form of the zoledronic acid, a process to obtain it and the pharmaceutical composition comprising it” (Gador S.A., priority 2005, dated 2012).

Assay: TGA Kinetics Analysis of dehydration (constant heating rate thermogravimetry, ASTM E1641)
Assay type: physicochemical
Experimental: In this Example, thermogravimetric analysis (TGA) is used as an analytical methodology to quantify the thermal stability parameters of solid chemicals. The data generated from these measurements is analyzed to obtain Arrhenius kinetic parameters such us activation energy (Ea) and preexponential factor. The activation energies of two different hydrates—zoledronic acid monohydrate and trihydrate—is obtained to analyze the dehydration reaction of these two forms to anhydrous form so that the their relative solid-state thermal stability can be ranked based on their activation energy values.
Thermogravimetric analysis (TGA) is a thermal analysis technique which measures the amount and rate of change on the weight of a material as a function of temperature or time in a controlled atmosphere. TGA measurements are used primarily to determinate the composition of materials and to predict their thermal stability up to elevate temperatures. However, with proper experimental procedures, additional information about the kinetics of decomposition and in-use lifetime predictions can be obtained.
TGA Kinetics Analysis method covers determination of the kinetic parameters, Arrhenius activation energy preexponential factor by thermogravimetry, based on the assumption that the decomposition to obeys first-order kinetics.
This program utilizes data gathered by running a sample at various heating rates. […]

In the case of `O=P(O)(O)C(O)(Cn1ccnc1)P(=O)(O)O` [Zoledronic acid monohydrate, Zoledronic Acid Monohydrate], the “Activation energy (dehydration to anhydrous form)” value (at 50.0 percent of conversion level, TGA at 5, 10 and 20° C./min from 25 to 200° C., dry nitrogen purge, Monohydrate) is reported as 36.33 kcal/mol.

In the case of `O=P(O)(O)C(O)(Cn1ccnc1)P(=O)(O)O` [Zoledronic acid trihydrate, Zoledronic Acid Trihydrate], the “solid-state kinetic thermal stability (relative ranking from activation energy)” value (trihydrate vs monohydrate) is reported as “greater than monohydrate form”.
